Measured values as given in publication PMC2365111, “Cytotoxicity of Poly(Phenolic)Sulfonates and Their Sodium Salts in L1210 Lymphoid Leukemia Cells” (Metal-Based Drugs, 1998).

Columns and labels:
[1] = tested on: L1210 RNA synthesis; assay: Incorporation of labeled precursor into RNA; assay type: cell-based, mouse; details: 60 min, N=6
Description: CYTOTOXlCITY OF POLY(PHENOLIC)SULFONATES AND THEIR SODIUM SALTS IN L1210 LYMPHOID LEUKEMIA CELLS Fei Wang, Amy E. Warren, Cheryl R. Barnes and Iris H. Hall* Division of Medicinal Chemistry and Natural Products University of North Carolina Chapel Hill, N.C. […] Because ofthese properties it was surmised that these poly(phenolic)sulfonated compounds may have antineoplastic activity. METHODS Source of Compounds Test compounds were supplied by GeneLabs, Inc. [Redwood City, CA [Table 1]. Radioisotopes were obtained from New England Nuclear [Dupont, Boston, MA]. Substrates and co-factors were purchased om Sigma Chemical Co., [St Louis, MO]. Pentosan sulfate and other antineoplastic standards were obtained from Sigma Chemical Co. Tumor lines were obtained from American Type Culture Collection [Rockville, MD]. 147 Vol. 5, No. 3, 1998 Cytotoxicity ofSodium Poly(Phenolic)Sulfonates in L1210 Lymphoid Leukemia Cells Table 1 Structures of Poly(phenolic)sulfonate Compounds O2R" n Compound R' R" n MW # G1-2041 H OH 8 1489.46 G1-2029 H OH 6 1117.09 G1-2030 H OH 4 744.73 GI-2021 CH3 ONa 8 1777.5 G1-2057 CH3 ONa 4 888.75 GI-2158 CH3 ONa 6 1333.13 GI-2063 OCH3 ONa 8 2001.65 G1-2042 OAc ONa 8 2017.73 Cytotoxicity Poly(phenolic)sulfonates were tested for cytotoxic activity by homogenizing drug in 0.05% Tween 80/H20 to give a mg/ml stock concentration. These solutions were sterilized by passing them through an acrodisc ([…]). The following cell lines were maintained by literature techniques: murine L1210 lymphoid leukemia, P-388 lymphocytic leukemia, rat UMR 106 osteosarcoma, human Tmolt3 acute lymphoblastic T cell leukemia, HUT-8 lymphoma, HeLa-S suspended cervical carcinoma, HeLa solid cervical carcinoma, KB epidermoid nasopharynx, A431 epidermoid carcinoma, colorectal adenocarcinoma SW480, HCT-8 ileocecal adenocarcinoma, lung bronchogenic MB-9812, A549 lung carcinoma, and glioma HS683. Geran et al.'s protocol was used to assess the cytotoxicity of the compounds and standards in each cell line. Cell numbers were determined by the trypan blue exclusion technique. Solid tumor cytotoxicity was determined by Leibovitz et al. 's method utilizing crystal violeeOH and read at 562 nm (Molecular Devices). Values for cytotoxicity were expressed as EDs0 g/ml, i.e. the concentration ofthe compound inhibiting 50% ofcell growth. A value of less than 4 µg/ml was required for significant activity ofgrowth inhibition. Incorporation Studies Incorporation of labeled precursors into 3H-DNA, 3H -RNA and 3H -protein for 10 L1210 cells was obtained. The concentration response for inhibition of DNA, RNA and protein synthesis of the compounds at 25, 50 and 100 l.tM was determined for 60 min incubations. Incorporation of 14C -glycine (53.0 mCi/mmol) into purines was obtained by the method of Cadman et al.[12]. Incorporation of 4C- formate (53.0 mCi/mmol) into pyrimidines was determined by the method of Christopherson et al.[13]. […] DNA polymerase Ot activity was determined in cytoplasmic extracts isolated by Eichler et aL's method. […] Messenger-, ribosomal- and transfer-RNA polymerase enzymes were isolated with different concentrations of ammonium sulfate; individual RNA polymerase activities were determined using 3H -UTP 16,17]. Ribonucleoside reductase activity was measured using 4C -CDP with dithioerythritol. […]

[2] = target: T1, mRNA polymerase (Mus musculus, UniProt P08775); assay: Messenger-RNA polymerase activity, L1210; assay type: biochemical; details: 60 min, N=6
T1 construct: Messenger-, ribosomal- and transfer-RNA polymerase enzymes were isolated with different concentrations of ammonium sulfate; endogenous in cells; host or cells: L1210 murine lymphoid leukemia cells, ammonium sulfate fraction
Description: CYTOTOXlCITY OF POLY(PHENOLIC)SULFONATES AND THEIR SODIUM SALTS IN L1210 LYMPHOID LEUKEMIA CELLS Fei Wang, Amy E. Warren, Cheryl R. Barnes and Iris H. Hall* Division of Medicinal Chemistry and Natural Products University of North Carolina Chapel Hill, N.C. […] Because ofthese properties it was surmised that these poly(phenolic)sulfonated compounds may have antineoplastic activity. METHODS Source of Compounds Test compounds were supplied by GeneLabs, Inc. [Redwood City, CA [Table 1]. Radioisotopes were obtained from New England Nuclear [Dupont, Boston, MA]. Substrates and co-factors were purchased om Sigma Chemical Co., [St Louis, MO]. Pentosan sulfate and other antineoplastic standards were obtained from Sigma Chemical Co. Tumor lines were obtained from American Type Culture Collection [Rockville, MD]. […] Cell numbers were determined by the trypan blue exclusion technique. Solid tumor cytotoxicity was determined by Leibovitz et al. 's method utilizing crystal violeeOH and read at 562 nm (Molecular Devices). Values for cytotoxicity were expressed as EDs0 g/ml, i.e. the concentration ofthe compound inhibiting 50% ofcell growth. […] Incorporation of 4C- formate (53.0 mCi/mmol) into pyrimidines was determined by the method of Christopherson et al.[13]. […] DNA polymerase Ot activity was determined in cytoplasmic extracts isolated by Eichler et aL's method. […] Messenger-, ribosomal- and transfer-RNA polymerase enzymes were isolated with different concentrations of ammonium sulfate; individual RNA polymerase activities were determined using 3H -UTP 16,17]. Ribonucleoside reductase activity was measured using 4C -CDP with dithioerythritol. […]

[3] = target: T2, Thymidylate synthetase (Mus musculus, UniProt P07607); assay: Thymidylate synthetase activity, L1210; assay type: biochemical; details: 60 min, N=6
T2 construct: preparing the appropriate L1210 cell homogenates or subcellular fractions; endogenous in cells; host or cells: L1210 murine lymphoid leukemia cells, homogenate or subcellular fraction
Description: (§1) CYTOTOXlCITY OF POLY(PHENOLIC)SULFONATES AND THEIR SODIUM SALTS IN L1210 LYMPHOID LEUKEMIA CELLS Fei Wang, Amy E. Warren, Cheryl R. Barnes and Iris H. Hall* Division of Medicinal Chemistry and Natural Products University of North Carolina Chapel Hill, N.C. […] Because ofthese properties it was surmised that these poly(phenolic)sulfonated compounds may have antineoplastic activity. METHODS Source of Compounds Test compounds were supplied by GeneLabs, Inc. [Redwood City, CA [Table 1]. Radioisotopes were obtained from New England Nuclear [Dupont, Boston, MA]. Substrates and co-factors were purchased om Sigma Chemical Co., [St Louis, MO]. Pentosan sulfate and other antineoplastic standards were obtained from Sigma Chemical Co. Tumor lines were obtained from American Type Culture Collection [Rockville, MD]. 147 Vol. 5, No. 3, 1998 Cytotoxicity ofSodium Poly(Phenolic)Sulfonates in L1210 Lymphoid Leukemia Cells Table 1 Structures of Poly(phenolic)sulfonate Compounds O2R" n Compound R' R" n MW # G1-2041 H OH 8 1489.46 G1-2029 H OH 6 1117.09 G1-2030 H OH 4 744.73 GI-2021 CH3 ONa 8 1777.5 G1-2057 CH3 ONa 4 888.75 GI-2158 CH3 ONa 6 1333.13 GI-2063 OCH3 ONa 8 2001.65 G1-2042 OAc ONa 8 2017.73 Cytotoxicity Poly(phenolic)sulfonates were tested for cytotoxic activity by homogenizing drug in 0.05% Tween 80/H20 to give a mg/ml stock concentration. These solutions were sterilized by passing them through an acrodisc ([…]). The following cell lines were maintained by literature techniques: murine L1210 lymphoid leukemia, P-388 lymphocytic leukemia, rat UMR 106 osteosarcoma, human Tmolt3 acute lymphoblastic T cell leukemia, HUT-8 lymphoma, HeLa-S suspended cervical carcinoma, HeLa solid cervical carcinoma, KB epidermoid nasopharynx, A431 epidermoid carcinoma, colorectal adenocarcinoma SW480, HCT-8 ileocecal adenocarcinoma, lung bronchogenic MB-9812, A549 lung carcinoma, and glioma HS683. Geran et al.'s protocol was used to assess the cytotoxicity of the compounds and standards in each cell line. Cell numbers were determined by the trypan blue exclusion technique. Solid tumor cytotoxicity was determined by Leibovitz et al. 's method utilizing crystal violeeOH and read at 562 nm (Molecular Devices). Values for cytotoxicity were expressed as EDs0 g/ml, i.e. the concentration ofthe compound inhibiting 50% ofcell growth. A value of less than 4 µg/ml was required for significant activity ofgrowth inhibition. Incorporation Studies Incorporation of labeled precursors into 3H-DNA, 3H -RNA and 3H -protein for 10 L1210 cells was obtained. The concentration response for inhibition of DNA, RNA and protein synthesis of the compounds at 25, 50 and 100 l.tM was determined for 60 min incubations. Incorporation of 14C -glycine (53.0 mCi/mmol) into purines was obtained by the method of Cadman et al.[12]. Incorporation of 4C- formate (53.0 mCi/mmol) into pyrimidines was determined by the method of Christopherson et al.[13]. Enzyme Assays Inhibition of various enzyme activities was performed by first preparing the appropriate L1210 cell homogenates or subcellular fractions, then adding the drug to be tested during the enzyme assay. For the concentration response studies, inhibition of enzyme activity was determined at 25, 50 and 100 l.tM of compounds G1-2021, G1-2029, GI-2041 and G1-2063 after 60 min incubations. DNA polymerase Ot activity was determined in cytoplasmic extracts isolated by Eichler et aL's method. The DNA polymerase assay was described by Sedwick et al.[15] using 3H-TTP. Messenger-, ribosomal- and transfer-RNA polymerase enzymes were isolated with different concentrations of ammonium sulfate; individual RNA polymerase activities were determined using 3H -UTP 16,17]. Ribonucleoside reductase activity was measured using 4C -CDP with dithioerythritol. The deoxyribonucleotides 4C -dCDP were separated from the ribonucleotides by TLC on PEI plates. […]

[4] = target: T3, Thymidine monophosphate kinase (Mus musculus, UniProt P97930); assay: TMP kinase activity, L1210; assay type: biochemical; details: 60 min, N=6
T3 construct: preparing the appropriate L1210 cell homogenates or subcellular fractions; endogenous in cells; host or cells: L1210 murine lymphoid leukemia cells, homogenate or subcellular fraction
T3 sequence (P97930 1-212): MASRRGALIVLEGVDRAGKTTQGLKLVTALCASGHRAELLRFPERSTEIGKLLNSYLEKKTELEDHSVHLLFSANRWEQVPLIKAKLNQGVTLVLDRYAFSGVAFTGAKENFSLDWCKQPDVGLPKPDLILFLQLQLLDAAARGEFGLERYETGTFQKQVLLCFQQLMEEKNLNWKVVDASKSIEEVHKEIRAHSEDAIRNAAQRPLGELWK
Description: as §1

[5] = target: T4, DNA polymerase α (Mus musculus, UniProt P33609); assay: DNA polymerase alpha activity, L1210 cytoplasmic extracts; assay type: biochemical; details: for DNA polymerase α: 60 min, N=6; for DNA polymerase activity time course, in words: 50 μM over 2 hr
T4 construct: endogenous in cells; host or cells: L1210 murine lymphoid leukemia cells, cytoplasmic extract
Description: as §1

[6] = tested on: L1210 de novo purine synthesis; assay: 14C-glycine incorporation into purines; assay type: cell-based, mouse; details: 60 min, N=6
Description: as §1

T4 sequence (P33609 whole entry): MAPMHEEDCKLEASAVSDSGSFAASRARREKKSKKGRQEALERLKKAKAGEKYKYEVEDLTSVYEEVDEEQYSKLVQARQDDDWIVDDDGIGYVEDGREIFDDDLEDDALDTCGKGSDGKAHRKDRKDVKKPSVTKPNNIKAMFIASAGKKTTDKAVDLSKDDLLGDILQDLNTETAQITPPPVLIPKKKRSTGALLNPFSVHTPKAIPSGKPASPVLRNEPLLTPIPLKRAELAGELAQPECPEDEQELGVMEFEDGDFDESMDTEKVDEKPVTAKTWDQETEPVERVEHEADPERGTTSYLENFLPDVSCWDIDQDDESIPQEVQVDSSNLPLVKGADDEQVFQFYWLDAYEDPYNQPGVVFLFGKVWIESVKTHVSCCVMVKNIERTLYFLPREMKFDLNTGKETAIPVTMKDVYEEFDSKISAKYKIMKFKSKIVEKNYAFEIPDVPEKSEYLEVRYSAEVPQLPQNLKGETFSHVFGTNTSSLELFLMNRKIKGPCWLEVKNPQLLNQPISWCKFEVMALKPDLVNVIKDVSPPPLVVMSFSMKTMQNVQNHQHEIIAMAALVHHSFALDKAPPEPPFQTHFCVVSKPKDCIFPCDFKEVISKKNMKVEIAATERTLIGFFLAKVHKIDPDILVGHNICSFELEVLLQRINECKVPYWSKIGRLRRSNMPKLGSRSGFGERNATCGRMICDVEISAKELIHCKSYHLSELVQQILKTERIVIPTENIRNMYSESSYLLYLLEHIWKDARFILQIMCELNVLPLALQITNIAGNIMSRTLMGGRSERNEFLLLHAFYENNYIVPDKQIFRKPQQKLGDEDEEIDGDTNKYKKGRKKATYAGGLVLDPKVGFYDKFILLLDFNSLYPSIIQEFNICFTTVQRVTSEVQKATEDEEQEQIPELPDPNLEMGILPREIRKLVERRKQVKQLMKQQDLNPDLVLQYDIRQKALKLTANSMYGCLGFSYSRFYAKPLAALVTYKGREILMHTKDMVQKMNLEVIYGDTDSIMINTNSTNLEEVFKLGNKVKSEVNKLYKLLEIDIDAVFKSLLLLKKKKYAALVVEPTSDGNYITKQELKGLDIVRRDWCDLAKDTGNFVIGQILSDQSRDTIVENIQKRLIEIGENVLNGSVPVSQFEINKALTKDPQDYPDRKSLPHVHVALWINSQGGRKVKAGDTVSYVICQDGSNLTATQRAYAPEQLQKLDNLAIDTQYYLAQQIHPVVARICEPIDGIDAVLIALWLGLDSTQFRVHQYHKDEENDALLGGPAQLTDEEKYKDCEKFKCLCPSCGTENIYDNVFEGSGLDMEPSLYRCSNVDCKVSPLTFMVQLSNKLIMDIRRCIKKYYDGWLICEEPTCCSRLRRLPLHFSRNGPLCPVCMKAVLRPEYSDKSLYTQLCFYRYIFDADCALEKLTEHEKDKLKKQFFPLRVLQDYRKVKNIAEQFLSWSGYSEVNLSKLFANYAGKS
T4 sequence (P33611 whole entry partner): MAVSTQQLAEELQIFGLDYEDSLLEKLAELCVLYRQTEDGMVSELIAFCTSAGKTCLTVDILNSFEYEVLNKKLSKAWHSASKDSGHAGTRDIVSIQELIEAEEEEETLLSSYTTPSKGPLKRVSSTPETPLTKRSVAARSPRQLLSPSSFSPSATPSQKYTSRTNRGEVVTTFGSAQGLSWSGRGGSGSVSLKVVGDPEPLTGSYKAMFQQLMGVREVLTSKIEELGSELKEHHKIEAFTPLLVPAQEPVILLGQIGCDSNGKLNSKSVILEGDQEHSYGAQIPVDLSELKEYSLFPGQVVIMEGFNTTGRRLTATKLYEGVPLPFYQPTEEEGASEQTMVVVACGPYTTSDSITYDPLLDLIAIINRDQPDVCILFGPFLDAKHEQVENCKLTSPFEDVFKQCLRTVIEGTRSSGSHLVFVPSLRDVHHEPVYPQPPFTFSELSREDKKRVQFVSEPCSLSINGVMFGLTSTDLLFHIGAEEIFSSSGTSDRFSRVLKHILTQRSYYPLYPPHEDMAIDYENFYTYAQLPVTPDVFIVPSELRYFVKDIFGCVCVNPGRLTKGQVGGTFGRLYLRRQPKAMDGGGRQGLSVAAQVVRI
T4 sequence (P20664 whole entry partner): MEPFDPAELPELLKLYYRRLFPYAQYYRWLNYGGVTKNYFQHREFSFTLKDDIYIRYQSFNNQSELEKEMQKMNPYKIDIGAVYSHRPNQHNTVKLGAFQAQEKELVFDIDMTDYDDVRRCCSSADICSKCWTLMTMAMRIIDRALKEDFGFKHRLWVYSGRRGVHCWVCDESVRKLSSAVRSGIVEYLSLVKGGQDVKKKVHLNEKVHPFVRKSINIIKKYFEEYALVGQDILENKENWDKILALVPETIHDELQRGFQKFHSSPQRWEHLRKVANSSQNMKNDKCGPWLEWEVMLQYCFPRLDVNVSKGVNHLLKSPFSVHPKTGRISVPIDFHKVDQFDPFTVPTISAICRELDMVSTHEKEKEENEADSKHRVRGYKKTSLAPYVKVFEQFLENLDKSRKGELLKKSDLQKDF
T4 sequence (P33610 whole entry partner): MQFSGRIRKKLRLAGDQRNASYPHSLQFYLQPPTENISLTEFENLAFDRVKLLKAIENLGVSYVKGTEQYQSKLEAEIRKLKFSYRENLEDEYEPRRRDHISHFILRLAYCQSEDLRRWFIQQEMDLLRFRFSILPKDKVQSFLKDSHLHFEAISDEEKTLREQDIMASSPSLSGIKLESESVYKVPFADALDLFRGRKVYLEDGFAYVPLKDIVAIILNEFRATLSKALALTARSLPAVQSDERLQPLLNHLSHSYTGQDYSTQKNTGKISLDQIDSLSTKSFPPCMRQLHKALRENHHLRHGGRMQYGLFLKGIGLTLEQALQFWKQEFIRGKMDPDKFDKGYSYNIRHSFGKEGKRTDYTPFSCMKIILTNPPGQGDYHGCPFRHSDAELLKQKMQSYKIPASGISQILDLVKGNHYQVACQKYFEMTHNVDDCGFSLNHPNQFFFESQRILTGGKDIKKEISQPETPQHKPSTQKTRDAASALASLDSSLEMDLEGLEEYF
T2 sequence (P07607 whole entry): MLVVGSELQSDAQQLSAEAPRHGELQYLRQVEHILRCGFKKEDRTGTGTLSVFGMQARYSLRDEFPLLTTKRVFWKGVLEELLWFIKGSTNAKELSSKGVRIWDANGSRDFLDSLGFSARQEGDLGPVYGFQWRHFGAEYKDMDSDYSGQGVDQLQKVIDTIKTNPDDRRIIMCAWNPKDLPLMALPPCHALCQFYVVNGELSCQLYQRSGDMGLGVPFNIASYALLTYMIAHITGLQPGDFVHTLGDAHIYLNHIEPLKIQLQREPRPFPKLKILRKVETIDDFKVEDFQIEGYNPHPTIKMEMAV

Compound: O=S(=O)(O)c1cc2c(O)c(c1)Cc1cc(S(=O)(=O)O)cc(c1O)Cc1cc(S(=O)(=O)O)cc(c1O)Cc1cc(S(=O)(=O)O)cc(c1O)Cc1cc(S(=O)(=O)O)cc(c1O)Cc1cc(S(=O)(=O)O)cc(c1O)Cc1cc(S(=O)(=O)O)cc(c1O)Cc1cc(S(=O)(=O)O)cc(c1O)C2 [GI-2041]
- RNA synthesis ([1]; 25 μM): 130+5% of Control
- mRNA polymerase ([2]; 100 μM): 47+3% of Control
- Thymidylate synthetase ([3]; 25 μM): 105+5% of Control
- Thymidylate synthetase ([3]; 50 μM): 103+6% of Control
- Thymidylate synthetase ([3]; 100 μM): 92+5% of Control
- Thymidine monophosphate kinase ([4]; 25 μM): 80+5% of Control
- Thymidine monophosphate kinase ([4]; 50 μM): 41+3% of Control
- DNA polymerase α ([5]; 25 μM): 85+5% of Control
- DNA polymerase activity time course, in words [5]: returned to normal at 90 min
- Purine de novo synthesis ([6]; 25 μM): 85+5% of Control
- Purine de novo synthesis ([6]; 100 μM): 54+3% of Control

Compound: O=S(=O)(O)c1cc2c(O)c(c1)Cc1cc(S(=O)(=O)O)cc(c1O)Cc1cc(S(=O)(=O)O)cc(c1O)Cc1cc(S(=O)(=O)O)cc(c1O)Cc1cc(S(=O)(=O)O)cc(c1O)Cc1cc(S(=O)(=O)O)cc(c1O)C2 [GI-2029]
- RNA synthesis ([1]; 50 μM): 91+5% of Control
- mRNA polymerase ([2]; 100 μM): 50+3% of Control
- Thymidylate synthetase ([3]; 25 μM): 92+5% of Control
- Thymidylate synthetase ([3]; 50 μM): 89+6% of Control
- Thymidine monophosphate kinase ([4]; 25 μM): 118+6% of Control
- Thymidine monophosphate kinase ([4]; 50 μM): 50+5% of Control
- DNA polymerase α ([5]; 25 μM): 70+3% of Control
- DNA polymerase activity time course, in words [5]: activity remained suppressed at 60 and 90 min
- DNA polymerase α ([5]; 50 μM): 60+3% of Control
- DNA polymerase α ([5]; 100 μM): 44+3% of Control
- Purine de novo synthesis ([6]; 25 μM): 130+6% of Control
- Purine de novo synthesis ([6]; 50 μM): 97+6% of Control

Compound: COc1c2cc(S(=O)(=O)[O-])cc1Cc1cc(S(=O)(=O)[O-])cc(c1OC)Cc1cc(S(=O)(=O)[O-])cc(c1OC)Cc1cc(S(=O)(=O)[O-])cc(c1OC)Cc1cc(S(=O)(=O)[O-])cc(c1OC)Cc1cc(S(=O)(=O)[O-])cc(c1OC)Cc1cc(S(=O)(=O)[O-])cc(c1OC)Cc1cc(S(=O)(=O)[O-])cc(c1OC)C2.[Na+].[Na+].[Na+].[Na+].[Na+].[Na+].[Na+].[Na+] [GI-2021]
- RNA synthesis ([1]; 25 μM): 109+6% of Control
- RNA synthesis ([1]; 50 μM): 94+6% of Control
- RNA synthesis ([1]; 100 μM): 78+4% of Control
- mRNA polymerase ([2]; 25 μM): 99+5% of Control
- Thymidylate synthetase ([3]; 25 μM): 97+6% of Control
- Thymidylate synthetase ([3]; 50 μM): 88+5% of Control
- Thymidylate synthetase ([3]; 100 μM): 82+4% of Control
- Thymidine monophosphate kinase ([4]; 25 μM): 110+6% of Control
- Thymidine monophosphate kinase ([4]; 100 μM): 32+3% of Control
- DNA polymerase α ([5]; 25 μM): 76+5% of Control
- DNA polymerase activity time course, in words [5]: activity remained suppressed at 60 and 90 min
- DNA polymerase α ([5]; 100 μM): 52+4% of Control
- Purine de novo synthesis ([6]; 25 μM): 121+6% of Control
- Purine de novo synthesis ([6]; 50 μM): 118+4% of Control
- Purine de novo synthesis ([6]; 100 μM): 74+6% of Control
